Entries after “also recorded” stand apart in the source; their conditions may differ. Read-outs that look alike come from different tables or passages of the source.
Key:
[1] = Intracellular metabolism of 6-ABP
HIV in AA-2 cells = assay: HIV propagation in AA-2 cells (cytopathogenicity); format: cell-based; settings: for inhibition at 3000 µM: varying HIV dilutions, read-out: HIV growth inhibition in AA-2 cells
Procedure: (§1) Whereas the activation of latent HIV by various DNAs and its prevention by 6-ABP were shown above, the following experiments examine the effects of 6-ABP on the direct propagation of highly virulent HIV strain obtained from NIH in Molt III cells, using cell supernatant as source of virus on AA-2 and MT2 cells in culture. More than 60 tests were performed varying virus titers, time of exposure, and exposure to 6-ABP.
The effect of 1 and 3 mM 6-ABP on the rate of HIV propagation is assayed by cytopathogenicity at a fixed HIV dilution 1:1600.
FIG. 7 illustrates the effect of 3 mM 6-ABP on HIV growth inhibition in AA-2 cells after 3 days and 6 days. The culture was exposed to 3 mM of the drug at varying HIV dilutions. 6-ABP concentration acting for 3 or 6 consecutive days on AA-2 cells is depicted as a function of virus concentration (given as HIV dilution on the abscissa).

[2] = format: in vivo
Procedure: This example illustrates the lack of toxicity after intraperitoneal administration of 6-ABP to mice.
Two toxicological tests administering 6-ABP to mice were performed under the following conditions.
One group of 5 mice received 6-ABP i.p. injection in amount of 1 g/kg.
Group of 50 white mice was injected daily with 250 mg/kg 6-ABP i.p. for 12 days.

established cell lines = assay: Intracellular drug concentration / transport in twelve cell lines; format: in vitro ADME
Procedure: It is of importance to determine both intracellular drug concentrations and mechanisms of drug transport. Twelve different cell types were incubated with varying concentrations of the drug for varying periods and intracellular drug concentration assayed with the aid of [5^3 H] labeled 6-ABP. […] Thus, there is a significant transport regulation through the cell membrane.

HIV in MT-2 cells = assay: HIV syncytia formation in MT-2 cells; format: cell-based; settings: 3 mM
Procedure: as §1
Equivalent results, shown in FIG. 9, were obtained with MT-2 cells. In FIG. 9, the inhibition of syncytia formation was quantitatively assayed. […] At very high HIV titre, at 1:100 dilution the untreated syncitia formation was 150 times higher than in treated culture.

ADPRT = assay: Binding to ADPRT; settings: enzymes other than ADPRT
Enterovirus (ECHO-11) = assay: microbe, parasite or virus in culture; format: cell-based
[3] = Yakugaku Zasshi, cited from earlier work
[4] = test system: HIV in human lymphoblasts; assay: HIV production in human lymphoblasts (p24 antigen); format: cell-based, HIV (isolates from blood of infected patients)
Procedure: In FIG. 10, human lymphoblast exposed to 6-ABP for 18 hours. The drug concentrations studied were between 0.01 to 10 mM. HIV production was studied in two time intervals, 6 and 12 days after the drug removal.
(§2) In FIGS. 11A through 11E, normal lymphoblasts stimulated with PHA are infected with HIV and at the same time are submitted to various concentrations from 0-10 mM 6-ABP. After the short exposure of 18 hours, both HIV and 6-ABP are removed, FIGS. 11A, 11C, 11E and the 6-ABP in the same concentrations is readded up to 4 days to cultures shown in FIGS. 11B and 11D. At 4 days, proliferation index measured by ^3 H-thymidine incorporation is determined in FIGS. 11A and 11B. […] In FIGS. 11C and […], the viral synthesis or inhibition is measured by p 24 assay.
The HIV isolates used in these experiments were isolated from the blood of infected patients. After isolation, HIV infection was established in CEM cells, and these infected cells were used to produce a stock of HIV virus that was titered to measure the concentration of tissue culture infective doses (TCID).
6 ABP was dissolved in saline in amount which was further diluted as required, and added to the culture medium containing cells at the indicated concentrations.
Human peripheral blood mononuclear cells from a noninfected, normal individual were stimulated for 2 to 3 days with phytohemagglutinin in tissue culture, washed, aliquoted and cultured overnight with 200 TCID or 50 TCID of HIV and were untreated or treated with 0.01, 0.1, 1.0 or 10.0 mM 6-ABP. An additional control was incubated with 10 mM 6-ABP without presence of HIV. After the overnight incubation, […]. The cells were placed in culture in medium containing IL-2, but in the absence of additional 6-ABP, and monitored at 6 days and 12 days for the production of HIV-p24 core antigen, or for measurements of particulate reverse transcriptase. A decrease in the amount of either of these indicators of HIV indicated an inhibition by 6-ABP in the ability of HIV to replicate in normal human lymphoblasts.
HIV p24 antigen was measured by ELISA, with a cutoff of 5 pgm/ml. Particulate reverse transcriptase was measured by centrifuging down free virus from tissue culture fluids, lysing HIV in a buffer containing detergent, magnesium, H3-labelled dTTP and poly rA.oligo dT primer, incubating for 1 hour, and measuring precipitable radioactivity, expressed as cpm per volume of HIV-containing medium.

human lymphoblasts = assay: Lymphoblast DNA synthesis / viability (3H-thymidine incorporation); format: cell-based
Procedure: as §2
The viability of lymphoblasts was measured by incubating the cells exposed to IL-2, HIV and to 6-ABP with H3-thymidine for 6 hours on the sixth day of culture and determining the amount of cpm incorporated per 100,000 cells placed in culture.
In order to ascertain that relatively short 18 hours exposure of human lymphoblasts selectively blocks HIV replication and has minimal effects on DNA synthesis of lymphoblasts, the proliferation, p24 and reverse transcriptase experiments were also performed, as shown in FIG. 11.
In panel A (top) DNA synthesis of lymphoblasts is assayed as a function of 6-ABP concentration. In panel A' (lower curve) the decay of HIV replication is simultaneously determined, and in A "panel" reverse transcriptase was assayed. All these are accepted assays for HIV replication.

## Nc1ccc2oc(=O)ccc2c1 [6-ABP, 6-amino-1,2-benzopyrone]
[1]; liver vs target cells
  reduction-oxidation cycle: high in liver but much lower in target cells
[1]; to 6-nitroso-1,2-benzopyrone
  intracellular oxidation: rapid oxidation at the 6-amino position
HIV in AA-2 cells; 1 mM, HIV dilution 1:1600
  HIV propagation in AA-2 cells: able to suppress the HIV propagation only slightly
HIV in AA-2 cells; 3 mM, Example 5
  HIV replication, AA-2 cells: complete abrogation of HIV replication
HIV in AA-2 cells; 3 mM, day 6, HIV dilution 1:1600
  HIV propagation in AA-2 cells: completely eliminates HIV propagation
HIV in AA-2 cells; Human immunodeficiency virus 1, 72 h, 3 mM, 3 days
  inhibition at 3000 µM: 70 to 100%
HIV in AA-2 cells; Human immunodeficiency virus 1, 144 h, 3 mM, 6 days
  inhibition at 3000 µM: 25 to 100%
[2]; 250 mg/kg i.p. daily, 12 days
  behavior: quite normal
  toxic effects: no visible toxic effects
  weight gain: no disruption in their normal weight gain
[2]; 1 g/kg i.p., 4 hours after injection, recovered in 18 hours
  seizures and weakness in one mouse: seizures and hind leg weakness but then completely recovered in 18 hours
[2]; 1 g/kg i.p., single, 24 hours observation
  toxic symptoms: no toxic symptoms in 4 mice
Established cell lines; 1 mM extracellular administration, depending on cell types
  concentration of intracellular drug: 65 to 200 µM
Established cell lines; 12 established cell lines
  intracellular plateau, % of drug concentration applied extracellularly: 10-20%
  time to plateau of 6-ABP transport: 18 to 24 h
Established cell lines; physiological pH 7.2-7.4
  penetration of mammalian cells: to a limited degree
HIV in MT-2 cells
  HIV production / syncytia formation in MT-2 cells: nearly completely suppressed HIV production
HIV in MT-2 cells; HIV titre 1:100 dilution
  untreated syncytia formation relative to treated culture: 150 times
ADPRT
  effect on other enzymes: no other enzymes are activated or inhibited
Enterovirus (ECHO-11); 1 mM 6-ABP, 24 hours before infection, ECHO-11
  Virus Titer +6-ABP (Enterovirus): 1.6 × 10^6 TCID50
Enterovirus (ECHO-11); 6-ABP treatment
  effect on Enterovirus growth: no effect
Enterovirus (ECHO-11); Enterovirus, 1 mM 6-ABP, 24 hours before infection, ECHO-11
  inhibition at 1000 µM: 0%
[3]; 78:491 (1958)
  hypothermal effect: 6-amino group decreased the hypothermal effect
[3]; 83:1124 (1963)
  antipyretic, hypnotic, hypotensive and adrenolytic action: Some antipyretic, hypnotic, hypotensive and adrenolytic action
[4]; 0-10 mM, 18 hours or 4 days exposure, FIGS. 11C and 11D
  viral multiplication, p 24 assay: almost completely inhibited
[4]; 0.1 μM (so in the source), 18 hours exposure, 6 and 12 days
  HIV production in human lymphoblasts: HIV production decreased dramatically
[4]; 0.1 mM, 18 hours exposure, 6 or 12 days past infection
  decrease of HIV (p24 tests): dramatic decrease of HIV
[4]; 18 hr exposure, FIG. 11
  selectivity against HIV replication vs cellular DNA synthesis: great selectivity of 6-ABP against HIV replication
Human lymphoblasts; 4 consecutive days exposure
  viability of lymphoblasts: viability of lymphoblasts was not affected by the drug
Human lymphoblasts; 18 hours exposure, FIG. 11A
  DNA synthesis of lymphoblasts: does not influence genomic DNA synthesis; also recorded: did not effect the DNA synthesis; also recorded: cellular DNA synthesis virtually unaffected
Human lymphoblasts; 4 days exposure, FIG. 11B
  DNA synthesis of lymphoblasts: temporarily also inhibited; also recorded: inhibitory effect on lymphoblast DNA synthesis
